The target of data set [1] is Tyrosine-protein kinase Lck (Homo sapiens, UniProt P06239).
Description: Inhibition of human recombinant Lck by ProFlour assay
For another data set, the system named is Jurkat. Nature of the data set: Inhibition of IL2 production in Jurkat E6-1 T cells by ELISA. As to conditions: Homo sapiens.
Data set [2] is described as follows: Aqueous solubility at pH 7.4. The class given is physicochemical.
A short description of data set [3]: Loss of metabolic stability in Sprague-Dawley rat hepatocytes after 1 hr at 1 uM. The class given is ADME, cell-based, Hepatocyte. As to conditions: read-out: Activity.
The target in data set [4] is Proto-oncogene tyrosine-protein kinase Src (Homo sapiens, UniProt P12931). Nature of the data set: Inhibition of human recombinant Src by ProFlour assay.
Sequence of Proto-oncogene tyrosine-protein kinase Src (P12931 2-536 limits assumed): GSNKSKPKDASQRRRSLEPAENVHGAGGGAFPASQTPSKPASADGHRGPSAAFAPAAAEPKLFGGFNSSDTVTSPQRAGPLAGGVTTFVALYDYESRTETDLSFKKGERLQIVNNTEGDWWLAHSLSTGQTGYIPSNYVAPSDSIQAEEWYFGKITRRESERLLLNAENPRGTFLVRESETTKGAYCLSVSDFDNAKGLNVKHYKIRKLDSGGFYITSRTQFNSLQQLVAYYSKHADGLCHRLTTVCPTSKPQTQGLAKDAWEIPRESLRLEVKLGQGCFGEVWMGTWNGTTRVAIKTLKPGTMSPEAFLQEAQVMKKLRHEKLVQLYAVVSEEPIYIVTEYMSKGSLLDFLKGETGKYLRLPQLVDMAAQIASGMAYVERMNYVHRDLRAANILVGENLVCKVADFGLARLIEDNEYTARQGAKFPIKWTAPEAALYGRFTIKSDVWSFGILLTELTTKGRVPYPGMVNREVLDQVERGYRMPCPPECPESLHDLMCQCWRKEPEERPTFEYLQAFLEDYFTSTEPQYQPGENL

For 12 compounds, IC50, solubility and metabolised results are on record in ChEMBL document CHEMBL1146149, “The development of 2-benzimidazole substituted pyrimidine based inhibitors of lymphocyte specific kinase (Lck)” (Bioorg Med Chem Lett, 2006).

In brackets after ≈: the same amount, converted by molar mass. Where only a bound is given, the exact number is not on record here.

Sequence of Tyrosine-protein kinase Lck (P06239 whole entry): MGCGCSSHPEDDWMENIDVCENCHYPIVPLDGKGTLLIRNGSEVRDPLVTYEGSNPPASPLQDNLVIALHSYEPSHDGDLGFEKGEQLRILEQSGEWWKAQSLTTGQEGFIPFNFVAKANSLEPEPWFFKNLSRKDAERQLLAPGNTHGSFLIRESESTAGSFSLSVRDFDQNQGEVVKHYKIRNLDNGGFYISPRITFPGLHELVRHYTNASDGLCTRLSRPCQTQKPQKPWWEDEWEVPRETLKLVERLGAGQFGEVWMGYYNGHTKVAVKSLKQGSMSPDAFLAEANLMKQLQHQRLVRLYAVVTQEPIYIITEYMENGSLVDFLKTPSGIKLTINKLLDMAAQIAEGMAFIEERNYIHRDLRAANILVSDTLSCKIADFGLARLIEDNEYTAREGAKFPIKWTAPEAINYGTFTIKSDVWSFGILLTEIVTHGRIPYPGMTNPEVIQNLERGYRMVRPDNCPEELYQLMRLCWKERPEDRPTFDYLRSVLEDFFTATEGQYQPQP

As usually defined, the IC50 is the concentration that gives 50% inhibition. `Cc1ccc(F)cc1Nc1ccnc(-n2cnc3ccccc32)n1` came in with a concentration for half-maximal inhibition (IC50) in data set [1] of more than 10000 nM.
On the same count and under the same terms, the same measure for `Cc1ccc(O)cc1Nc1cc(-n2cnc3ccccc32)ncn1`: more than 10000 nM.
By solubility is commonly meant the concentration that dissolves in the medium under given conditions. The low end stands for little dissolved substance, the high end for much dissolved substance. With `Cc1ccc(O)cc1Nc1cc(OCCN2CCN(C)CC2)nc(-n2cnc3ccccc32)n1`, in the data set with Jurkat, the concentration for half-maximal inhibition (IC50) was found to be 400 nM. The solubility in data set [2] was 70 µg/mL (≈ 152 µM). Further, the metabolised at 1 h, 1 µM in data set [3] was 35%.
For the compound `CCN(CC)CCNc1cc(Nc2cc(O)ccc2C)nc(-n2cnc3ccccc32)n1`, the IC50 was 549 nM with Jurkat and 162 nM in data set [4]. Also, in data set [2], the concentration in solution (solubility) was 127 µg/mL (≈ 294 µM). The metabolised at 1 h, 1 µM in data set [3] came to 45%.
In the data set with Jurkat, `Cc1ccc(O)cc1Nc1cc(NCCN2CCN(C)CC2)nc(-n2cnc3ccccc32)n1` came in with an IC50 of 2280 nM. For the same compound, the concentration in solution in data set [2] (solubility) was 54 µg/mL (≈ 118 µM). Also, in data set [3], the metabolised at 1 h, 1 µM was 39%.
In the case of `COc1ccc(C)c(Nc2nccc(-n3cnc4ccccc43)n2)c1`, the IC50 in data set [1] was more than 10000 nM.
For `Cc1ccc(O)cc1Nc1cc(NCCCN(C)C)nc(-n2cnc3ccccc32)n1`, the concentration for half-maximal inhibition (IC50) with Jurkat worked out at 2200 nM. In data set [2], this compound registered a solubility of 55 µg/mL (≈ 132 µM). Besides, the metabolised at 1 h, 1 µM in data set [3] is 48%.
Turning to `Cc1ccc(O)cc1Nc1cc(OCCN2CCOCC2)nc(-n2cnc3ccccc32)n1`, the half-inhibitory concentration (IC50) with Jurkat was found to be 54 nM. The compound further gave a solubility in data set [2] of 3 µg/mL (≈ 6.72 µM). The metabolised at 1 h, 1 µM in data set [3] worked out at 48%.
In the data set on Jurkat, `COc1ccc(C)c(Nc2cc(OCCN3CCOCC3)nc(-n3cnc4ccccc43)n2)c1` registered an IC50 of 1270 nM. This compound also came in with a solubility in data set [2] of 27 µg/mL (≈ 58.6 µM).
In the same order, the values of `Cc1ccc(O)cc1Nc1cc(CC2CCN(C)CC2)nc(-n2cnc3ccccc32)n1` are 163 nM and 40 µg/mL (≈ 93.3 µM).
Compound `Cc1ccc(O)cc1Nc1cc(N2CCN(C)CC2)nc(-n2cnc3ccccc32)n1` displayed a solubility in data set [2] not above 0.1 µg/mL.
In turn, `Oc1cccc(Nc2nccc(-n3cnc4ccccc43)n2)c1` had an IC50 in data set [1] of more than 10000 nM.
